From publication PMC9549030, “Structural basis for specific inhibition of the deubiquitinase UCHL1” (Nature Communications, 2022) come the findings set out here.

Where “and” joins values, the source holds several entries; their conditions need not be identical. Identical values can stand only once. Like-named read-outs stand apart in the source and are kept apart here.

The target in assay [1] is T1, UCHL1 (Homo sapiens, UniProt P09936).
T1 sequence (P09936 1-223): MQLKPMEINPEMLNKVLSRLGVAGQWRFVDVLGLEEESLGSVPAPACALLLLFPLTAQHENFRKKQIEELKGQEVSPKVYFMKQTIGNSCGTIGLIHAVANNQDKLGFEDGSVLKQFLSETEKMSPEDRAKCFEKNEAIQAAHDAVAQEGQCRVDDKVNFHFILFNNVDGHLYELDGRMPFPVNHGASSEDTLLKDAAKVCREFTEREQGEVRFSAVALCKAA
Nature of the assay: Ub-Rhodamine (Ubiquitin rhodamine cleavage) assay. The class given is biochemical. As to conditions: 1 h preincubation; for remaining activity at 0.00050402 µM: compound 0.50402 nM; for remaining activity at 0.00151206 µM: compound 1.51206 nM; for remaining activity at 0.00453618 µM: compound 4.53618 nM; for remaining activity at 0.0136085 µM: compound 13.6085 nM; for remaining activity at 0.0408257 µM: compound 40.8257 nM; for remaining activity at 0.122477 µM: compound 122.477 nM; for remaining activity at 0.367431 µM: compound 367.431 nM; for remaining activity at 1.10229 µM: compound 1102.29 nM; for remaining activity at 3.30688 µM: compound 3306.88 nM; for remaining activity at 30.581 µM: compound 30581 nM; for remaining activity at 100 µM: compound 100000 nM; for remaining activity at 0.000610352 µM: compound 0.610352 nM; for remaining activity at 0.0012207 µM: compound 1.2207 nM; for remaining activity at 0.00244141 µM: compound 2.44141 nM; for remaining activity at 0.00488281 µM: compound 4.88281 nM; for remaining activity at 0.00976562 µM: compound 9.76562 nM; for remaining activity at 0.0195312 µM: compound 19.5312 nM; for remaining activity at 0.0390625 µM: compound 39.0625 nM; for remaining activity at 0.078125 µM: compound 78.125 nM; for remaining activity at 0.15625 µM: compound 156.25 nM; for remaining activity at 0.3125 µM: compound 312.5 nM; for remaining activity at 0.625 µM: compound 625 nM; for remaining activity at 1.25 µM: compound 1250 nM; for remaining activity at 2.5 µM: compound 2500 nM; for remaining activity at 5 µM: compound 5000 nM; for remaining activity at 10 µM: compound 10000 nM.

Assay [2] has as its target T1, UCHL1. In words: Thermal shift assay. It is filed as binding. As to conditions: UCHL1 1 µM, 1 h, replicates. On the procedure:
Reactions were performed in white 96-well PCR plates (Bio-Rad). UCHL1 was diluted in thermal shift buffer (1x PBS, 5 mM DTT) to a 4x concentration of 4 µM. The protein was then mixed with 4x compound dissolved in thermal shift buffer in a 1:1 ratio. To each well was added 20 µL of DUB-Inhibitor solution, followed by 1 h incubation time. To each well was then added 20 µL 4x SYPRO Orange in thermal shift buffer. After sealing the plates with a transparent film, thermal denaturation (gradient: 20–90 °C; Increment: 0.3 °C, hold for 5 s before read) was performed and monitored by a Bio-Rad Connect cycler.

In assay [3] the test system is T2, UCHL1 in HEK293 cells.
T2 construct: Western blot analysis of endogenous UCHL1 labeled with HA-Ub-VS after treatment of HEK293 cells; endogenous in cells; host or cells: HEK293
Nature of the assay: Cellular Ub-probe (HA-Ub-VS) competition, inhibition of cellular UCHL1. The class given is cell-based, human. How it is done:
Proteins were transferred to a polyvinylidene fluoride (PVDF, only experiments in Fig. 4e and Supplementary Fig. 7e, f) or nitrocellulose (all other experiments) membrane using a Trans-Blot Turbo system (Bio-Rad, 1.3 A, 25 V, 10 min). The membranes were blocked with 5% (m/v) nonfat milk in PBS-T buffer and incubated with indicated primary antibodies (anti-UCHL1, 1:1000, Cell Signaling, D3T2E; anti-PARK7, 1:1000, Cell Signaling, D29E5; anti-Tubulin, 1:4000, Sigma, T6199; anti-Hemagglutinin, 1:1000, BioLegend, 16B12; anti-flag, 1:2000, Sigma, F3165; anti-Ubiquitin, 1:1000, Cell Signaling, P4D1; anti-Ubiquitin, 1:300, Santa Cruz, P4D1, sc-8017; anti-UCHL3, 1:1000, Proteintech, 12384-1-AP) overnight. Then the membranes were incubated with the respective secondary antibody (anti-mouse,1:5000, Sigma, NXA931; anti-rabbit, 1:5000, Sigma, GENA934) coupled to horseradish peroxidase. The chemiluminescent reaction was initiated using a Clarity Western ECL substrate (Bio-Rad) and images were taken on a ChemiDoc MP Imaging System (Bio-Rad).
The total protein concentration was adjusted to 2 mg/ml by diluting each sample with ABP lysis buffer. A final concentration of 1 µM HA-Ub-VS probe was added, followed by incubation for 30 min at 37 °C. The labeling reaction was quenched by the addition of 4x LDS sample buffer. The samples were separated via SDS-PAGE and further analyzed via western blotting as described above.

Assay [4] has as its target T1, UCHL1. Nature of the assay: Identification of probe-labeled proteins with mass spectrometry (pulldown enrichment). The conditions noted are these: HEK293 cells; 1 µM; 24 h.
Experimental: Cells were cultured, treated with a compound, and lysed as described above. The cell lysate was diluted to a protein concentration of 2 mg/mL with ABP lysis buffer. 1 µL of each click reagent (see above) were added to each sample, followed by an incubation period of one hour at room temperature with protection from light. The sample volume was adjusted to 1000 µL with PBS and 30 µL of a NeutrAvidin (Thermo Fisher) bead slurry (prewashed 3x with PBS) were added to each sample. The samples were incubated for one hour to overnight on a rotator at 15 rpm at 4 °C. Beads were pelleted by centrifugation, the supernatant was discarded, and the beads were washed six times (1x with ½x lysis buffer, followed by five washes with PBS). After removing the washing solution completely, the beads were subjected to reduction with dithiothreitol (1 mM), alkylation with chloroacetamide (5 mM) and on-bead digestion with first LysC (Serva Biotech, 1 h, 37 °C), followed by trypsin (Sigma Aldrich, 1 h, overnight). Tryptic peptides were desalted with C18 StageTips and analyzed by nano-HPLC-MS/MS.
An Ultimate 3000 RSLC nano-HPLC system and a Hybrid-Orbitrap mass spectrometer (Q Exactive Plus) equipped with a nano-spray source (Thermo Fisher Scientific) was used. The protein fragments were enriched on a C18 PepMap 100 column (5 μm, 100 Å, 300 μm ID * 5 mm, Dionex) using 0.1% TFA, at a flow rate of 30 μL/min, for 5 min and separated on a C18 PepMap 100 column (3 μm, 100 Å, 75 μm ID × 50 cm) using a linear gradient (5–30% ACN/H2O + 0.1% formic acid over 90 min) with a flow rate of 300 nL/min. […] Signals in the mass range of m/z 300 to 1650 were acquired at a resolution of 70,000 for the full scan, followed by ten high-energy collision-dissociation (HCD) MS/MS scans of the most intense at least doubly charged ions at a resolution of 17,500. Proteins were relatively quantified by using MaxQuant[60] v.2.0.3.1, including the Andromeda search algorithm and searching the Homo sapiens reference proteome of the UniProt database. Briefly, an MS/MS ion search was performed for enzymatic trypsin cleavage, allowing two missed cleavages. Carbamidomethylation was set as a fixed protein modification, and oxidation of methionine and acetylation of the N-terminus were set as variable modifications. The mass accuracy was set to 20 parts per million (ppm) for the first search and to 4.5 ppm for the second search. The false discovery rates for peptide and protein identification were set to 0.01. Only proteins for which at least two peptides were quantified were chosen for further validation. Relative quantification of proteins was performed by using the label-free quantification algorithm implemented in MaxQuant. Statistical data analysis of pulldown samples was performed using Perseus[61] v.1.6.15.0, including proteins which were identified in at least four of the five biological replicates which were used per condition. Label-free quantification (LFQ) intensities were log-transformed (log2); replicate samples were grouped together. Pairwise comparisons of groups were performed separately. Missing values were imputed using small normally distributed values (width 0.3, downshift 1.8) and a two-sided t-test (s0 = 5, FDR = 0.001) was performed.
Where [5] appears, read: read-out: UCHL1 activity, data point mean.
[6] abbreviates: source data Fig. 3b, read-out: Averaged IC50s from independent experiments (single experiments).
Setting [7] is: mean ± SD of independent experiments, read-out: IC50 (UCHL1).

With `C#CCCCNC(=O)[C@@H]1CCN(C#N)C1` [GK16R], the IC50 in assay [1] (read-out: IC50 (UCHL1)) was over 100000 nM. In assay [1] (setting [5]), the remaining activity at 0.00050402 µM was 91.8%, the remaining activity at 0.00151206 µM is 91.4%, the remaining activity at 0.00453618 µM turned out to be 89.6% and the remaining activity at 0.0136085 µM came out at 96.6%. In assay [1] (setting [5]), the remaining activity at 0.0408257 µM was 94.5%, the remaining activity at 0.122477 µM stood at 93.7%, the remaining activity at 0.367431 µM stood at 92.4% and the remaining activity at 1.10229 µM was determined as 91.5%. In assay [1] (setting [5]), the remaining activity at 3.30688 µM was 89%, the remaining activity at 30.581 µM came out at 83.6% and the remaining activity at 100 µM came to 80.5%. The “melting temperature (Tm) of UCHL1” value in assay [2] (compound 1.25 µM) is 53.4 and 53.1. Further, in assay [2] (compound 2.5 µM), the “melting temperature (Tm) of UCHL1” value is 53.1 and 53.4. In addition, the “melting temperature (Tm) of UCHL1” value in assay [2] (compound 5 µM) was 53.4 and 53.1.

For `C#CCCCNC(=O)c1ccc(-n2cnc(NC(=O)[C@H]3CCNC3)c2)cc1` [GK12S], the IC50 in assay [1] (read-out: IC50 (UCHL1)) was over 100000 nM. Further, in assay [1] (setting [5]), the remaining activity at 0.00050402 µM was 91.5%, the remaining activity at 0.00151206 µM was 91.7%, the remaining activity at 0.00453618 µM was 90.7% and the remaining activity at 0.0136085 µM was 97.1%. Also, in assay [1] (setting [5]), the remaining activity at 0.0408257 µM amounted to 88.7%, the remaining activity at 0.122477 µM was found to be 91.4%, the remaining activity at 0.367431 µM came to 92.8% and the remaining activity at 1.10229 µM was found to be 91.5%. In assay [1] (setting [5]), the remaining activity at 3.30688 µM was determined as 88.8%, the remaining activity at 30.581 µM amounted to 90.9% and the remaining activity at 100 µM stood at 101%. In addition, in assay [2] (compound 1.25 µM), the “melting temperature (Tm) of UCHL1” value was 53.4 and 53.1. Moreover, the “melting temperature (Tm) of UCHL1” value in assay [2] (compound 2.5 µM) amounted to 53.4. Also, in assay [2] (compound 5 µM), the “melting temperature (Tm) of UCHL1” value was 53.4 and 53.1.

Consider `COCCNC(=O)c1ccc(-n2cnc(NC(=O)[C@H]3CCN(C#N)C3)c2)cc1` [Cpd158, reference compound], for which the “inhibition of cellular UCHL1” value in assay [3] (HEK293 cells, 1 and 5 µM, 1 h and 24 h (Supplementary Fig. 5f)) is “time- and concentration-dependent inhibition”. In assay [1] (setting [5]), the remaining activity at 0.000610352 µM was 96.9%, the remaining activity at 0.0012207 µM was 97.3%, the remaining activity at 0.00244141 µM was 95.8% and the remaining activity at 0.00488281 µM was 91.1%. Besides, in assay [1] (setting [5]), the remaining activity at 0.00976562 µM was found to be 90.7%, the remaining activity at 0.0195312 µM came out at 86.9%, the remaining activity at 0.0390625 µM was 82% and the remaining activity at 0.078125 µM turned out to be 76.7%. In assay [1] (setting [5]), the remaining activity at 0.15625 µM was 62.5%, the remaining activity at 0.3125 µM stood at 34.6%, the remaining activity at 0.625 µM amounted to 14.3% and the remaining activity at 1.25 µM came to 4.23%. Further, in assay [1] (setting [5]), the remaining activity at 2.5 µM was 2.34%, the remaining activity at 5 µM came out at 1.97% and the remaining activity at 10 µM worked out at 1.42%. In addition, the IC50 in assay [1] (setting [6]) was 222 nM and 36 nM and 129 nM and 153 nM and 104 nM. In addition, the “melting temperature (Tm) of UCHL1” value in assay [2] (compound 1.25 µM) is 59.4. Moreover, in assay [2] (compound 2.5 µM), the “melting temperature (Tm) of UCHL1” value was found to be 59.4. The “melting temperature (Tm) of UCHL1” value in assay [2] (compound 5 µM) was 59.1 and 59.4.

For `N#CN1CCC[C@H]1C(=O)N1CCc2c(-c3ccnc4[nH]ccc34)cccc21` [Cpd117, reference compound], the “inhibition of cellular UCHL1” value is “very low degree of inhibition” in assay [3] (after 1 h (Supplementary Fig. 5f)) and “no inhibition of cellular UCHL1 at all” in assay [3] (after 24 h incubation (Supplementary Fig. 5f)). Also, in assay [1] (setting [7]), the IC50 was 9 ± 3 nM.

`C#CCCCNC(=O)c1ccc(-n2cnc(NC(=O)[C@@H]3CCNC3)c2)cc1` [GK12R]: the IC50 in assay [1] (read-out: IC50 (UCHL1)) was over 100000 nM. Further, in assay [1] (setting [5]), the remaining activity at 0.00050402 µM amounted to 95.8%, the remaining activity at 0.00151206 µM was determined as 97.9%, the remaining activity at 0.00453618 µM is 98% and the remaining activity at 0.0136085 µM turned out to be 94.4%. Moreover, in assay [1] (setting [5]), the remaining activity at 0.0408257 µM came to 95.3%, the remaining activity at 0.122477 µM was 95.6%, the remaining activity at 0.367431 µM came out at 94.6% and the remaining activity at 1.10229 µM is 95.5%. Further, in assay [1] (setting [5]), the remaining activity at 3.30688 µM was 94.2%, the remaining activity at 30.581 µM stood at 93.5% and the remaining activity at 100 µM was 99.1%. For the same compound, the “melting temperature (Tm) of UCHL1” value in assay [2] (compound 1.25 µM) is 53.4 and 52.8 and 53.1. For the same compound, in assay [2] (compound 2.5 µM), the “melting temperature (Tm) of UCHL1” value was 53.4. In addition, the “melting temperature (Tm) of UCHL1” value in assay [2] (compound 5 µM) is 53.1.

As for `C#CCCCNC(=O)c1ccc(-n2cnc(NC(=O)[C@@H]3CCN(C#N)C3)c2)cc1` [GK13R], the “inhibition of cellular UCHL1” value in assay [3] (HEK293 cells, 24 h) is recorded as “complete inhibition of UCHL1”. For the same compound, in assay [4], the “change in log2 enrichment values of UCHL1, GK13S vs GK13R” value is 2. In assay [1] (setting [7]), the IC50 turned out to be 2090 ± 164 nM. In assay [1] (read-out: IC50 (UCHL1)), the IC50 was 2000 nM. The remaining activity at 0.000305176 µM in assay [1] (compound 0.305176 nM, read-out: UCHL1 activity, data point mean) came to 103%. Also, in assay [1] (setting [5]), the remaining activity at 0.000610352 µM stood at 98.3%, the remaining activity at 0.0012207 µM was determined as 99.2%, the remaining activity at 0.00244141 µM was 99.4% and the remaining activity at 0.00488281 µM amounted to 97.8%. For the same compound, in assay [1] (setting [5]), the remaining activity at 0.00976562 µM was 96.8%, the remaining activity at 0.0195312 µM turned out to be 95.9%, the remaining activity at 0.0390625 µM is 98.3% and the remaining activity at 0.078125 µM was found to be 93.7%. Besides, in assay [1] (setting [5]), the remaining activity at 0.15625 µM amounted to 88%, the remaining activity at 0.3125 µM came out at 80.6%, the remaining activity at 0.625 µM is 70.3% and the remaining activity at 1.25 µM was 52.9%. Also, in assay [1] (setting [5]), the remaining activity at 2.5 µM came to 34.3%, the remaining activity at 5 µM was 13.6% and the remaining activity at 10 µM came to 3.56%. For the same compound, the IC50 in assay [1] (setting [6]) is 2210 nM and 1980 nM. The “melting temperature (Tm) of UCHL1” value in assay [2] (compound 1.25 µM) is 53.1 and 53.4. Also, the “melting temperature (Tm) of UCHL1” value in assay [2] (compound 2.5 µM) is 53.7 and 53.4. The “melting temperature (Tm) of UCHL1” value in assay [2] (compound 5 µM) was 54 and 54.6.
